Laboratory results from patent publication US20230295109A1, “PYRIDINONE COMPOUNDS FOR THE TREATMENT OF AUTOIMMUNE DISEASE” (F. Hoffmann-La Roche AG, priority 2020, published 2023).

Assay: Parallel Artificial Membrane Permeability Assay (PAMPA)
Format: in vitro ADME
Conditions: for Membrane Retention / Papp at 4 h: PAMPA; for Membrane Retention: pH 7.40, 4 hours; for Papp at 4 h: pH 7.4, pH 7.40, room temperature, read-out: PAMPA Pe; for PAMPA category: class from Pe and membrane retention
Protocol: PAMPA (Parallel Artificial Membrane Permeability Assay) is a first-line permeability screen for drug candidates. This assay mimics the transcellular absorption conditions using an artificial phospholipid membrane and generates a permeability value that can be used for compound ranking and optimization as well as input parameters for in silico models to predict intestinal absorption.
Permeation experiments are carried out in hydrophobic PVDF 96-well microtiter filter plates (MultiScreen Filter Plate, Millipore, #MAIPN4550). Each well is coated with PVDF membrane, which is prepared with 5 µL Dodecane (Sigma, D221104) that contains 1% lecithin (Sigma, P3556-1G).
The typical PAMPA experimental protocol is as follows: The donor plate is placed on a Teflon acceptor plate that has been pre-filled with 150 µL of 100 mM PBS buffer (2.6 g KH2PO4 and 18.5 g K2HPO4.3H2O are dissolved in about 1000 mL of ultra-pure water and mixed thoroughly. The pH is adjusted to 7.40 ± 0.05, using either 1 M sodium hydroxide or 1 M hydrochloric acid.) containing 5% DMSO. The filter on the bottom of each acceptor well is filled with 300 µL of 100 mM PBS buffer (2.6 g KH2PO4 and 18.5 g K2HPO4.3H2O are dissolved in about 1000 mL of ultra-pure water, mixed thoroughly. The pH was adjusted to 7.40 ± 0.05, using either 1 M sodium hydroxide or 1 M hydrochloric acid.). The resulting sandwich is incubated at room temperature under constant shaking (300 rpm) for 4 hours. The sandwich is then disassembled. Before incubation, spike 20 µL dosing solution and mix with 250 µL PBS and 130 µL quench solution (acetonitrile) as T0 sample. After incubation, collect 270 µL solutions from acceptor chamber, followed by the addition of 130 µL acetonitrile. Collect 20 µL solution from donor chamber and add 250 µL PBS and 130 µL acetonitrile. The concentration of compound in all samples are determined by LC-MS/MS and the equations for determining the permeability (Pe, 10^-6 cm/s ) are as follows.
VD is the volume of the donor well; VR is the volume of the acceptor well; Area is the active surface area of membrane; Time is the incubation time (14,400 s in this assay); CR and CD are the concentrations of compound in acceptor and donor solutions, respectively, at the completion of the assay; C0 is the concentration of compound in donor solution before incubation.
The main readout of the PAMPA assay is the permeability value Pe expressed in 10^-6 cm/s. Secondary readouts determined are the amounts of compound in the donor and acceptor compartments as well as compound retention in the membrane. Depending on the permeation rate and the membrane retention, compounds are classified as “low” (Pe < 0.2 and membrane retention <20%) or “medium & high” (Pe >= 0.2; or Pe < 0.2 and membrane retention >= 20%). Each sample is measured in triplicate; the standard deviation is determined for the permeation constant Pe.

Membrane Retention [%] | Papp at 4 h [×10⁻⁶ cm/s] | SMILES | PAMPA category
21.370 | 0.95 | Cc1cc(-c2ccc(N3CCN(Cc4cnc(N5CCNCC5)cn4)CC3)nc2C(C)C)cn(C)c1=O [Example 8, 5-[2-isopropyl-6-[4-[(5-piperazin-1-ylpyrazin-2-yl)methyl]piperazin-1-yl]-3-pyridyl]-1,3-dimethyl-pyridin-2-one] | medium & high (“medium & high” (Pe >= 0.2; or Pe < 0.2 and membrane retention >= 20%))
27.230 | 0.78 | Cc1cc(-c2ccc(N3CCN(Cc4cnc(N5CCNCC5)nc4)CC3)nc2C(C)C)cn(C)c1=O [Example 9, 5-[2-isopropyl-6-[4-[(2-piperazin-1-ylpyrimidin-5-yl)methyl]piperazin-1-yl]-3-pyridyl]-1,3-dimethyl-pyridin-2-one] | medium & high (“medium & high” (Pe >= 0.2; or Pe < 0.2 and membrane retention >= 20%))
24.900 | 0.6 | Cc1cc(-c2ccc(N3CCN(Cc4ccc(N5CCNCC5)nc4)CC3)nc2C(C)C)cn(C)c1=O [Example 11, 5-[2-isopropyl-6-[4-[(6-piperazin-1-yl-3-pyridyl)methyl]piperazin-1-yl]-3-pyridyl]-1,3-dimethyl-pyridin-2-one] | medium & high (“medium & high” (Pe >= 0.2; or Pe < 0.2 and membrane retention >= 20%))
15.270 | 0.46 | Cc1cc(-c2ccc(N3CCN(Cc4ncc(N5CCNCC5)cn4)CC3)nc2C(C)C)cn(C)c1=O [Example 12, 5-[2-isopropyl-6-[4-[(5-piperazin-1-ylpyrimidin-2-yl)methyl]piperazin-1-yl]-3-pyridyl]-1,3-dimethyl-pyridin-2-one] | medium & high (“medium & high” (Pe >= 0.2; or Pe < 0.2 and membrane retention >= 20%))
56.550 | 0.46 | Cc1cc(-c2ccc(N3CCN(Cc4ccc(N5CCNCC5)cc4)CC3)nc2C(C)C)cn(C)c1=O [Example 13, 5-[2-isopropyl-6-[4-[(4-piperazin-1-ylphenyl)methyl]piperazin-1-yl]-3-pyridyl]-1,3-dimethyl-pyridin-2-one] | medium & high (“medium & high” (Pe >= 0.2; or Pe < 0.2 and membrane retention >= 20%))
38.020 | 0.54 | Cc1cc(-c2ccc(N3CCN(Cc4cccc(N5CCNCC5)c4)CC3)nc2C(C)C)cn(C)c1=O [Example 14, 5-[2-isopropyl-6-[4-[(3-piperazin-1-ylphenyl)methyl]piperazin-1-yl]-3-pyridyl]-1,3-dimethyl-pyridin-2-one] | medium & high (“medium & high” (Pe >= 0.2; or Pe < 0.2 and membrane retention >= 20%))
30.770 | 0.24 | Cc1cc(-c2ccc(N3CCN4CCN(c5ccc(N6CCNCC6)nc5)CC4C3)nc2C(C)C)cn(C)c1=O (stereo not drawn) [Example 16, 5-[2-isopropyl-6-[8-(6-piperazin-1-yl-3-pyridyl)-3,4,6,7,9,9a-hexahydro-1H-pyrazino[1,2-a]pyrazin-2-yl]-3-pyridyl]-1,3-dimethyl-pyridin-2-one] | medium & high (“medium & high” (Pe >= 0.2; or Pe < 0.2 and membrane retention >= 20%))
8.650 | 0.74 | Cc1cc(-c2ccc(N3CCC(N4CCNCC4)CC3)nc2C(C)C)cn(C)c1=O [Example 18, 5-[2-isopropyl-6-(4-piperazin-1-yl-1-piperidyl)-3-pyridyl]-1,3-dimethyl-pyridin-2-one] | medium & high (“medium & high” (Pe >= 0.2; or Pe < 0.2 and membrane retention >= 20%))

Further lines, the molecule ahead of its results:

SMILES | Membrane Retention [%] | Papp at 4 h [×10⁻⁶ cm/s] | PAMPA category
CCc1nc(N2CCN(Cc3cnc(N4CC5(CNCCO5)C4)nc3)CC2)ccc1-c1cc(C)c(=O)n(C)c1 [Example 1, 5-[2-ethyl-6-[4-[[2-(5-oxa-2,8-diazaspiro[3.5]nonan-2-yl)pyrimidin-5-yl]methyl]piperazin-1-yl]-3-pyridyl]-1,3-dimethyl-pyridin-2-one] | -11.520 | 0.57 | medium & high (“medium & high” (Pe >= 0.2; or Pe < 0.2 and membrane retention >= 20%))
CCc1nc(N2CCN(Cc3ccc(N4CC5(CNCCO5)C4)nc3)CC2)ccc1-c1cc(C)c(=O)n(C)c1 [Example 2, 5-[2-ethyl-6-[4-[[6-(5-oxa-2,8-diazaspiro[3.5]nonan-2-yl)-3 pyridyl]methyl]piperazin-1-yl]-3-pyridyl]-1,3-dimethyl-pyridin-2-one] | 10.600 | 0.49 | medium & high (“medium & high” (Pe >= 0.2; or Pe < 0.2 and membrane retention >= 20%))
CCc1nc(N2CCN(Cc3cnc(N4CC(C)(N)C4)nc3)CC2)ccc1-c1cc(C)c(=O)n(C)c1 [Example 3, 5-[6-[4-[[2-(3-amino-3-methyl-azetidin-1-yl)pyrimidin-5-yl]methyl]piperazin-1-yl]-2-ethyl-3-pyridyl]-1,3-dimethyl-pyridin-2-one] | -1.260 | 0.53 | medium & high (“medium & high” (Pe >= 0.2; or Pe < 0.2 and membrane retention >= 20%))
CCc1nc(N2CCN(Cc3cnc(N4CCOC[C@@H](N)C4)nc3)CC2)ccc1-c1cc(C)c(=O)n(C)c1 [Example 4, 5-[6-[4-[[2-[(6S)-6-amino-1,4-oxazepan-4-yl]pyrimidin-5-yl]methyl]piperazin-1-yl]-2-ethyl-3-pyridyl]-1,3-dimethyl-pyridin-2-one] | 15.690 | 0.75 | medium & high (“medium & high” (Pe >= 0.2; or Pe < 0.2 and membrane retention >= 20%))
CCc1nc(N2CCN(Cc3ccc(N4CCNCC4)cc3)CC2)ccc1-c1cc(C)c(=O)n(C)c1 [Example 5, 5-[2-ethyl-6-[4-[(4-piperazin-1-ylphenyl)methyl]piperazin-1-yl]-3-pyridyl]-1,3-dimethyl-pyridin-2-one] | 18.250 | 1.5 | medium & high (“medium & high” (Pe >= 0.2; or Pe < 0.2 and membrane retention >= 20%))
Cc1cc(-c2ccc(N3CCN(Cc4cnc(N5CC6(CNCCO6)C5)nc4)CC3)nc2C(C)C)cn(C)c1=O [Example 6, 5-[2-isopropyl-6-[4-[[2-(5-oxa-2,8-diazaspiro[3.5]nonan-2-yl)pyrimidin-5-yl]methyl]piperazin-1-yl]-3-pyridyl]-1,3-dimethyl-pyridin-2-one] | 19.190 | 0.65 | medium & high (“medium & high” (Pe >= 0.2; or Pe < 0.2 and membrane retention >= 20%))
Cc1cc(-c2ccc(N3CCN(Cc4ccc(N5CCNCC5)cn4)CC3)nc2C(C)C)cn(C)c1=O [Example 7, 5-[2-isopropyl-6-[4-[(5-piperazin-1-yl-2-pyridyl)methyl]piperazin-1-yl]-3-pyridyl]-1,3-dimethyl-pyridin-2-one] | 2.530 | 0.74 | medium & high (“medium & high” (Pe >= 0.2; or Pe < 0.2 and membrane retention >= 20%))
Cc1cc(-c2ccc(N3CCN(Cc4cnc(N5CC(C)(N)C5)nc4)CC3)nc2C(C)C)cn(C)c1=O [Example 10, 5-[6-[4-[[2-(3-amino-3-methyl-azetidin-1-yl)pyrimidin-5-yl]methyl]piperazin-1-yl]-2-isopropyl-3-pyridyl]-1,3-dimethyl-pyridin-2-one] | 7.250 | 0.6 | medium & high (“medium & high” (Pe >= 0.2; or Pe < 0.2 and membrane retention >= 20%))
Cc1cc(-c2ccc(N3CCN(c4ccc5c(n4)CCNC5)CC3)nc2C(C)C)cn(C)c1=O [Example 15, 5-[2-isopropyl-6-[4-(5,6,7,8-tetrahydro-1,6-naphthyridin-2-yl)piperazin-1-yl]-3-pyridyl]-1,3-dimethyl-pyridin-2-one] | 27.680 | 0.23 | medium & high (“medium & high” (Pe >= 0.2; or Pe < 0.2 and membrane retention >= 20%))
Cc1cc(-c2ccc(N3CCN(Cc4ccc(N5CCNCC5)cc4)CC3)nc2C(F)F)cn(C)c1=O [Example 17, 5-[2-(difluoromethyl)-6-[4-[(4-piperazin-1-ylphenyl)methyl]piperazin-1-yl]-3-pyridyl]-1,3-dimethyl-pyridin-2-one] | 50.950 | 1.5 | medium & high (“medium & high” (Pe >= 0.2; or Pe < 0.2 and membrane retention >= 20%))
